Test system: subjects who use video display terminals (VDT) for long time and tend to have asthenopia
Assay: Human feeding test: detection of visuognosis persistence (asthenopia remission test)
Type: in vivo
Conditions: after feeding tablets 35 days, once per day, two tablets, compared with before feeding; FIG. 1
Excerpt: As used herein, the term “visuognosis persistence” is an index for evaluating asthenopia. When the cortical excitability in the human brain reduces, the visual analysis function decreases, in the process of eyes fixating at object, invisible duration will increase and visuognosis duration will decrease. […] X^2 test was used for performance indexes.

CC1=C[C@H](O)CC(C)(C)[C@H]1/C=C/C(C)=C/C=C/C(C)=C/C=C/C=C(C)/C=C/C=C(C)/C=C/C1=C(C)C[C@@H](O)CC1(C)C [lutein]
visuognosis persistence increased: 10.27±8.56%

From patent publication US20090297618A1, “COMPOSITION BENEFICIAL FOR VISUOGNOSIS PERSISTENCE AND USE THEREOF” (Zhejiang Medicine Co., Ltd. Xinchang Pharmaceutical Factory, priority 2008, published 2009)
